How the values were obtained:
JAK3 = target: T1, JAK3 (Homo sapiens, UniProt P52333); assay: Kinase selectivity biochemical assay, JAK3
T1 sequence (P52333 1-1124): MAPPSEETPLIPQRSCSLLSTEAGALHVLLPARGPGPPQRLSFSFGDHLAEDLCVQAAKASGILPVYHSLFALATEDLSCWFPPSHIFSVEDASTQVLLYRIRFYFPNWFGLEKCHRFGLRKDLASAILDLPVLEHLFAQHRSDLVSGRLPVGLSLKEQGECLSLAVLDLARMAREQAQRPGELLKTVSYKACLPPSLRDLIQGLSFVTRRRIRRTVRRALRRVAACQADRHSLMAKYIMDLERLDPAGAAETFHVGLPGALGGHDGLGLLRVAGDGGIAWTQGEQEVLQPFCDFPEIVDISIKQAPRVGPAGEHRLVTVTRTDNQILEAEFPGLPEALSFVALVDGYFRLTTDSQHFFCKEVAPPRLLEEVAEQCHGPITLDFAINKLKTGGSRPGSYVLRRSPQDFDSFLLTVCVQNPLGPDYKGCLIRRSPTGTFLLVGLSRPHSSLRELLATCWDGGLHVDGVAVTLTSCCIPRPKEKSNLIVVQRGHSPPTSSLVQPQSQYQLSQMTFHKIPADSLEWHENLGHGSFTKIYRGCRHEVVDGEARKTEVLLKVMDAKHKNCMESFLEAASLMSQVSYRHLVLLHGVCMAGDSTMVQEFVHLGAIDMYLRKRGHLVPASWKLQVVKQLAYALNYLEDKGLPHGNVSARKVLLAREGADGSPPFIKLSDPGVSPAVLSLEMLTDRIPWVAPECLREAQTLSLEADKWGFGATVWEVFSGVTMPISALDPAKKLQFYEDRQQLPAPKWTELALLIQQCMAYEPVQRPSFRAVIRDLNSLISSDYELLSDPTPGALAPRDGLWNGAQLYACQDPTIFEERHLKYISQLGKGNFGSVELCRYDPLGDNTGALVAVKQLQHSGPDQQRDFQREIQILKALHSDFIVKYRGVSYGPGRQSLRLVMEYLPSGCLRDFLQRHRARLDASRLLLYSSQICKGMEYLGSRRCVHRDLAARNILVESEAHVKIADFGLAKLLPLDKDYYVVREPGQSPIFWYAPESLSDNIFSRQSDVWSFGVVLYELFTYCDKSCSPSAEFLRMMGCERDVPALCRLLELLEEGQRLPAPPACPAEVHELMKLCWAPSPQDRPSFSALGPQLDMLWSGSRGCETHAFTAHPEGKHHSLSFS

A431 = assay: Cell growth inhibition in EGFR overexpressed A431; assay type: cell-based; settings: Homo sapiens, A-431; cellular level; read-out: IC50, cell growth inhibition in EGFR overexppressed A431
CD8+ Memory (CD3+CD28) = assay: High-dimensional phosphorylation analysis, CD8+ Memory (CD3+CD28); assay type: cell-based, human; settings: 30 µM, 5'
Description: (§1) The analysis measured 94 intracellular signaling nodes (81 phosphorylation sites, 10 total protein levels and 3 methylation/acetylation sites) in stimulated immune cells, including B cells (IgM plus CD40L), CD4 + and CD8 + T cells (IL-2; CD3 plus CD28), monocytes (M-CSF), NK cells (IL-2), and granulocytes (LPS).

Monocytes (M-CSF) = assay: High-dimensional phosphorylation analysis, Monocytes (M-CSF); assay type: cell-based, human
Description: as §1

BTK [1] = target: T2, BTK (Homo sapiens, UniProt Q06187); assay: BTK occupancy in whole blood ex vivo; assay type: cell-based; set-up: from tissue; host or cells: whole blood
BTK [2] = target: T2, BTK; assay: Phase I BTK occupancy (free BTK ELISA) in PBMCs of healthy volunteers; assay type: in vivo; set-up: endogenous in cells; host or cells: PBMCs of healthy volunteers
Description: PK/PD data from 24 subjects who had received the drug BID among the 90 total subjects who participated in the MAD study were analyzed. Blood was collected on day 1 before drug administration and 1 h, 2 h, 4 h, and 12 h after drug administration. Blood samples were taken 3 days and 2 h after drug administration. Additional blood samples were taken on day 6 (5, 20, and 60 mg/kg), day 15 (40 mg/kg), day 17, and day 21 for PK/PD analysis.
The BTK occupancy assay and analysis of BTK phosphorylation inhibition were performed as described previously. Briefly, isolated PBMCs were lysed with RIPA buffer (R0278, Sigma-Aldrich) containing 1 × protease/phosphatase inhibitor (1861281, Thermo Fisher Scientific) and EDTA (1861274, Thermo Fisher Scientific). The supernatants were collected by 10 min at 14,000 × g in microcentrifuge at 4 °C and biotinylated probe was added to bind free BTK for 1 h. Rabbit anti-BTK Ab (1:5000 in 1% BSA) bound the captured BTK/probe complex, and was detected with […] antibody conjugated with HRP then ultra-TMB solution was added to each well for the free BTK analysis. Analysis of free and total BTK levels for the phase I study was conducted by Cambridge Biomedical Inc. (MA, USA). BTK occupancy was calculated by taking the free BTK and total BTK results from a given donor and used the following formula: %BTKoccupancy=100%-FreeBTK/totalBTK×100.

T2 sequence (Q06187 whole entry): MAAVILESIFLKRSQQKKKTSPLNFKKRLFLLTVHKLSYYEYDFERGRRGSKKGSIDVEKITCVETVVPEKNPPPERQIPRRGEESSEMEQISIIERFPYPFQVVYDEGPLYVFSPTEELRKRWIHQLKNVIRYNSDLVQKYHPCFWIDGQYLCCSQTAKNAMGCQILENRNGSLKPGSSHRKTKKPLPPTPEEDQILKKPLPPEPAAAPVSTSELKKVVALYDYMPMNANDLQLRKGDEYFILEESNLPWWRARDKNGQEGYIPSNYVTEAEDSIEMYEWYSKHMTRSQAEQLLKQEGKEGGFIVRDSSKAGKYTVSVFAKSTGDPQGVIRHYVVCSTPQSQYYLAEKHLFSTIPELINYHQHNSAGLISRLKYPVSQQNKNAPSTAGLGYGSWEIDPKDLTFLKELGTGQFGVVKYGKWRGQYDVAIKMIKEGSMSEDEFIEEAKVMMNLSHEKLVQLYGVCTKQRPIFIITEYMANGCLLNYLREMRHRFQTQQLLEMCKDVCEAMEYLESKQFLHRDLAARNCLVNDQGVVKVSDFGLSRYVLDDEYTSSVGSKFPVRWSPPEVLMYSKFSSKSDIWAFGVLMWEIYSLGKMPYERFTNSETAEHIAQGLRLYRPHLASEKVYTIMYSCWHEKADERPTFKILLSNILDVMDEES

- selectivity toward BTK over JAK3 (JAK3): 7.5 ×
- IC50 (A431): > 500 nM
- IC50 (BTK [1]): 160 nM
- time of maximum BTK inhibition (BTK [2]; 40 mg): 12 h
- BTK occupancy (BTK [2]; 40 mg dosing, maintained up to 48 h after the first dose): More than 80%
- time of maximum BTK inhibition (BTK [2]; 60 mg): 4 h
- BTK inhibition (BTK [2]; 4 h after the first dose, doses of 40 mg and higher): > 90%
- inhibition at 20 mg (BTK [2]; human, steady state (120 h), doses of 20 mg bid and higher): > 90%
Structure (SMILES): C=CC(=O)Nc1cccc(Oc2nc(Nc3ccc(N4CCN(C)CC4)cc3)nc3ccoc23)c1 [Poseltinib]
- BTK phosphorylation, Log2Ratio Stim/Control (CD8+ Memory (CD3+CD28)): 1.34
- CrL phosphorylation, Log2Ratio Stim/Control (CD8+ Memory (CD3+CD28)): 1.59
- HS1 phosphorylation, Log2Ratio Stim/Control (CD8+ Memory (CD3+CD28)): 0.56
- LCK phosphorylation, Log2Ratio Stim/Control (CD8+ Memory (CD3+CD28)): 1.52
- PLCγ2 phosphorylation, Log2Ratio Stim/Control (CD8+ Memory (CD3+CD28)): 2.55
- RPS6KA1 phosphorylation, Log2Ratio Stim/Control (CD8+ Memory (CD3+CD28)): 0.47
- SRC phosphorylation, Log2Ratio Stim/Control (CD8+ Memory (CD3+CD28)): 0.80
- WIPF1 phosphorylation, Log2Ratio Stim/Control (CD8+ Memory (CD3+CD28)): 0.82
- ZAP70 phosphorylation, Log2Ratio Stim/Control (CD8+ Memory (CD3+CD28)): 1.33
- AKT1 phosphorylation, Log2Ratio Stim/Control (Monocytes (M-CSF); 30 µM, 5'): 0.41
- Akt phosphorylation, Log2Ratio Stim/Control (Monocytes (M-CSF); 30 µM, 5'): 1.06
- BTK phosphorylation, Log2Ratio Stim/Control (Monocytes (M-CSF); 30 µM, 5'): -0.12
- GSK3B phosphorylation, Log2Ratio Stim/Control (Monocytes (M-CSF); 30 µM, 5'): 0.82
- HSP27 phosphorylation, Log2Ratio Stim/Control (Monocytes (M-CSF); 30 µM, 5'): 1.80
- MAPK3 phosphorylation, Log2Ratio Stim/Control (Monocytes (M-CSF); 30 µM, 5'): 1.88
- NDRG1 phosphorylation, Log2Ratio Stim/Control (Monocytes (M-CSF); 30 µM, 5'): 0.97
- RELB phosphorylation, Log2Ratio Stim/Control (Monocytes (M-CSF); 30 µM, 5'): 0.82
- RPS6KA1 phosphorylation, Log2Ratio Stim/Control (Monocytes (M-CSF); 30 µM, 5'): 1.33
- RPS6 phosphorylation, Log2Ratio Stim/Control (Monocytes (M-CSF); 30 µM, 5'): 0.89
- AKT phosphorylation in monocytes stimulated with M-CSF (Monocytes (M-CSF); data not shown): did not inhibit

Reference: PMC8455565 (Scientific Reports, 2021)
